Numbered stars: 1 amine (or outer) side, 2 acyl side, 3 side chain; on linkers, the order of the positions; unused ones are H or OH. Bridge positions count the residues as written; N and C are the ends. Square brackets hold non-standard residues; d marks the D form. Peptide text beside a SMILES is read from it. Trp(2-yl) = O=C([C@H](Cc1c([*:3])[nH]c2ccccc12)N[*:1])[*:2]; Leu(4R-OH,5-OH) = C[C@](O)(CO)C[C@H](N)C(=O)O; cisHyp = O=C(O)[C@@H]1C[C@H](O)CN1
Target: T1, G-actin (pyrene-labeled) (Oryctolagus cuniculus, UniProt P68135)
T1 construct: purchased Cytoskeleton, Inc., Colorado
Assay: In vitro polymerization of pyrene-labeled G-actin
Type: biochemical
Conditions: buffer G with 1 mM MgCl2; conjugate 50 μg/ml, phalloidin 4 μM
Protocol: In vitro polymerization of G-actin was performed according to the method of Maul and coworkers (Maul et al., 2003).
This in vitro assay is based on the enhanced fluorescence of pyrene-conjugated actin that occurs during polymerization in vitro.
For conducting the polymerization assay, general actin buffer containing pyrene actin and ATP was added to the wells. Then polymerization buffer, samples (P34 free peptide, P33 free peptide, P34BSA and P33BSA), and phalloidin (as positive control) were added to the wells. Then fluorescence intensity was read with a spectrophotometer (Excitation: 360 nm; Emission: 410 nm). The reading was done for 15 minutes with intervals of 30 seconds.
For the assay to determine inhibition of polymerization, all the wells contained polymerization buffer to initiate polymerization. […]
As mentioned above, in vitro polymerization of G-actin was performed according to the method of Maul and coworkers (Maul et al., 2003). […] 5 μl samples were applied on a microscope slide, and examined by fluorescence microscopy.
P34BSA was tested for the capacity to inhibit or induce actin polymerization. […] The fluorescence intensity of the mixture was read with a microplate fluorescence reader (FL600, Bio-Tek®; Ex. 360 nm, +/−20 nm bandwidth; Em. 410 nm, +/−10 nm bandwidth). The emissions were recorded for 15 min at 30 sec intervals. […]

With `C[C@@H]1NC(=O)[C@H](C[C@@](C)(O)CO)NC(=O)[C@@H]2Cc3c([nH]c4ccccc34)SC[C@H](NC(=O)[C@@H]([C@H](C)O)NC1=O)C(=O)N1C[C@@H](O)C[C@H]1C(=O)N[C@@H](C)C(=O)N2` [phalloidin] (cyclo(A[dT]C[cisHyp]A[Trp(2-yl)][Leu(4R-OH,5-OH)]); thioether 3-6) the “induction of actin polymerization” value was “able to promote polymerization”.

— US7659366B2, “Peptide with putative role in cytoskeletal protection” (priority 2005, dated 2010)
